Legend:
[1] = tested on: mouse hepatocyte cell lines (AML12); experiment: TGF-β-induced fibrosis, co-administration of dehydrozingerone derivative and EW-7197 (epithelial-mesenchymal conversion, BODIPY, α-SMA staining); format: cell-based; conditions: 2 ng/ml TGF-β, 24 hours, 10 μM EW-7197, 1 μM Cur or Cur5-8, 10 μM DHZ, DHZ103 or DHZ176
Method: In addition, the curcumin derivative Cur5-8 of Example 1-4 and the TGF-β receptor inhibitor were co-administered, and then fibrosis and fat synthesis and degradation were checked again. […] The control group (Con) was not treated with either TGF-β or the sample. […] After washing with PBS 1×, stained cells were observed. In addition, in order to check the degree of fibrosis of hepatocytes, the cells cultured for 24 hours were fixed with 4% paraformaldehyde and stained by using α-SMA (Santa Cruz Biotechnology, Inc., Dallas, Texas, USA), an Alexafluor 488 (Cell Signaling Technology, Danvers, Massachusetts, USA) antibody, and DAPI (Abcam plc., Cambridge, MA, USA). The cells were mounted with a mounting solution (Fisher Scientific, Hampton, Rockingham, USA), the manufactured sample was photographed using a confocal microscope to obtain photographs of stained cells, and the degree of color development in the photographs of the stained cells was analyzed with the ImageJ program.

[2] = tested on: C57BL/6 mice in which steatohepatitis was induced with a methionine-choline deficient diet; experiment: Steatohepatitis animal model (MCD), curcumin 5-8 and low-concentration EW-7197 (5 mg/kg); format: in vivo, mouse; conditions: MCD-fed C57BL/6 mice, 6 weeks; EW-7197 5 mg/kg oral; curcumin 5-8 1 g per 1 kg diet
Method: 8-week-old male C57BL/6 mice weighing 20 to 25 g were purchased from Dae Han Bio Link Co., Ltd. (Chungbuk). […] Mice were fed with a normal diet (Research Diets, RD) and allowed to drink water freely. […] In order to confirm the physiological changes in case of co-administration of a curcumin derivative (Cur5-8) and a TGF-β receptor inhibitor (EW-7197), the liver weights and the concentrations of TG, TC, AST, ALT, and γ-GT in serum were measured. In addition, hydroxyprolin expression was checked as a fibrosis marker in the liver tissues. Specifically, the weights of the liver tissues harvested in Examples 2-1 and 2-2 were measured before storage. […] In order to measure blood glucose, triglyceride, cholesterol, and AST and ALT concentrations, ELISA kit of Asan Pharm. Co., Ltd. was purchased, and the measuring was performed. γ-GT in the liver was measured by using Mak089 of Sigma-Aldrich, and hydroxyproline was measured by using STA-675 ELISA kit of Cell Biolabs, Inc. In addition, the hydroxyprolin expression was checked in the liver tissues harvested in Examples 2-1 and 2-2. In order to check effects of inhibiting fat accumulation in liver tissues and fibrosis in liver tissues in case of co-administration of a curcumin derivative (Cur5-8) and a TGF-β receptor inhibitor (EW-7197), the liver tissues were stained. The liver tissues harvested in Examples 2-1 and 2-2 were fixed with 10% formaldehyde, the formaldehyde was washed out with running water for more than 12 hours, and then washing was performed with 60% ethanol at a one-hour interval, with 70% ethanol at a one-hour interval, and with 100% ethanol at a one-hour interval. Then, the transparency process in xylene was performed three times for one hour each, and the infiltration process in paraffin was performed twice for one hour each. Then, the paraffin block was cut to a thickness of about […] to obtain slices. […] In addition, H&E-stained liver slices were evaluated by using the NAFLD activity score (NAS) system. […]

[3] = tested on: LX-2 cells (human hepatic stellate cell lines); experiment: Fibrosis markers by Western blotting after TGF-β induction, TGF-β receptor inhibitor; format: cell-based; conditions: 2 ng/ml TGF-β, 10 μM EW-7197, 24 hours, FIG. 3
Method: Cell experiments were performed by using AML12, […], and LX-2 cells, a human hepatic stellate cell.
LX-2 cells were cultured in a culture medium made by adding 1% penicillin streptomycin (anti-anti) and 10% fetal bovine serum (FBS) to a DMEM medium containing high glucose (4500 mg/L D-glucose, L-glutamine, 110 mg/L sodium pyruvate, sodium bicarbonate).
Fibrosis was induced in hepatocytes with TGF-β, a TGF-β receptor inhibitor was administered, and fibrosis was checked.
Specifically, 2 ng/ml of TGF-β was administered to the cells of Example 1-1, and administered or not administered with 10 μM EW-7197 (EW), and cultured for 24 hours. The control group (Con) was not treated with either TGF-β or the sample. […] A protein concentration was measured by BCA assay (Pierce Biotechnology Inc). […] Then, the membranes were washed, briefly incubated with Pico Enhanced Peroxidase Detection (EPD) Western reagent (ELPISBIOTECH. INC.) according to the manufacturer's procedure, and quantified by using an image analyzer (ImageQuant™ LAS 500, GE Healthcare Bio-Sciences AB, Uppsala, Sweden). β-actin was used as an internal control. Densitometry of protein intensity was quantified by using ImageJ (National Institutes of Health). […]

With `Cc1cccc(-c2[nH]c(CNc3ccccc3F)nc2-c2ccc3ncnn3c2)n1` [EW-7197, N-(2-fluorophenyl)-5-(6-methyl-2-pyridinyl)-4-[1,2,4]triazolo[1,5-a]pyridin-6-yl-1H-imidazole-2-methanamine] the “epithelial-mesenchymal conversion caused by TGF-β” value ([1]; FIG. 16) was “inhibited”, the “fat accumulation / adipogenesis in cells (BODIPY staining)” value ([1]; FIGS. 16, 17) was “fat accumulation in cells was exhibited” and the “liver fibrosis (α-SMA staining)” value ([1]; FIGS. 16, 18) was “inhibited”. It also gave an ALT [2] of 96.1 ± 17.96 IU/L, an AST [2] of 159.6 ± 26.73 IU/L and a TG [2] of 28.3 ± 4.84 mg/dL. The “protein expressions of α-SMA, Coll, p-SMAD2, and p-SMAD3 increased by TGF-β” value [3] was “inhibited”.

Reference: patent publication US20230364069A1, “METHOD FOR TREATING NON-ALCOHOLIC STEATOHEPATITIS THROUGH CO-ADMINISTRATION OF CURCUMIN DERIVATIVE AND TGF-B RECEPTOR INHIBITOR” (UNIVERSITY INDUSTRY FOUNDATION, YONSEI UNIVERSITY WONJU …, priority 2021, published 2023)
